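Assay format: 96-well plates, 48-hour exposure. Here, GI50 denotes the concentration required for 50% inhibition of growth.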 Activity calls are given as the source filed them. Rule as the data show it: active = GI50 up to about 1.1 µM and inactive = higher.
Tests used:
Assay in all cases: DTP human tumour cell line panel, 48 h
786-0 = system: 786-0
A498 = system: A498
A549 = system: A549
ACHN = system: ACHN
BT-549 = system: BT-549
CAKI-1 = system: CAKI-1
CCRF-CEM = system: CCRF-CEM
COLO 205 = system: COLO 205
DU-145 = system: DU-145
EKVX = system: EKVX
HCC 2998 = system: HCC 2998
HCT-116 = system: HCT-116
HCT-15 = system: HCT-15
HL-60 = system: HL-60
HOP-62 = system: HOP-62
HOP-92 = system: HOP-92
HT-29 = system: HT-29
Hs-578T = system: Hs-578T
IGROV-1 = system: IGROV-1
K562 = system: K562
KM12 = system: KM12
LOX IMVI = system: LOX IMVI
M14 = system: M14
MCF7 = system: MCF7
MDA-MB-231 = system: MDA-MB-231
MDA-MB-435 = system: MDA-MB-435
MOLT-4 = system: MOLT-4
Malme-3M = system: Malme-3M
NCI-H226 = system: NCI-H226
NCI-H23 = system: NCI-H23
NCI-H460 = system: NCI-H460
NCI-H522 = system: NCI-H522
NCI/ADR-RES = system: NCI/ADR-RES
OVCAR-3 = system: OVCAR-3
OVCAR-4 = system: OVCAR-4
OVCAR-5 = system: OVCAR-5
OVCAR-8 = system: OVCAR-8
PC-3 = system: PC-3
RPMI-8226 = system: RPMI-8226
RXF 393 = system: RXF 393
SF-268 = system: SF-268
SF-295 = system: SF-295
SF-539 = system: SF-539
SK-MEL-28 = system: SK-MEL-28
SK-MEL-2 = system: SK-MEL-2
SK-MEL-5 = system: SK-MEL-5
SK-OV-3 = system: SK-OV-3
SN12C = system: SN12C
SNB-19 = system: SNB-19
SNB-75 = system: SNB-75
SW-620 = system: SW-620
T47D = system: T47D
TK-10 = system: TK-10
U-251 = system: U-251
UACC-257 = system: UACC-257
UACC-62 = system: UACC-62
UO-31 = system: UO-31
SR = system: SR

NC1=CN(Cc2ccccc2)C2=N/C(=C\c3ccccc3)C(=O)N12
GI50 (786-0): > 100 µM (inactive) | GI50 (A498): > 100 µM (inactive) | GI50 (A549): > 100 µM (inactive) | GI50 (ACHN): > 100 µM (inactive) | GI50 (BT-549): > 100 µM (inactive) | GI50 (CAKI-1): > 100 µM (inactive) | GI50 (CCRF-CEM): 50 µM (inactive) | GI50 (COLO 205): > 100 µM (inactive) | GI50 (DU-145): > 100 µM (inactive) | GI50 (EKVX): > 100 µM (inactive) | GI50 (HCC 2998): > 100 µM (inactive) | GI50 (HCT-116): > 100 µM (inactive) | GI50 (HCT-15): > 100 µM | GI50 (HL-60): 26.1 µM (inactive) | GI50 (HOP-62): > 100 µM (inactive) | GI50 (HOP-92): > 100 µM (inactive) | GI50 (HT-29): > 100 µM (inactive) | GI50 (Hs-578T): > 100 µM (inactive) | GI50 (IGROV-1): > 100 µM (inactive) | GI50 (K562): 48.8 µM (inactive) | GI50 (KM12): 96.8 µM (inactive) | GI50 (LOX IMVI): > 100 µM (inactive) | GI50 (M14): > 100 µM (inactive) | GI50 (MCF7): > 100 µM (inactive) | GI50 (MDA-MB-231): > 100 µM (inactive) | GI50 (MDA-MB-435): 50.1 µM (inactive) | GI50 (MOLT-4): 97.3 µM (inactive) | GI50 (Malme-3M): > 100 µM (inactive) | GI50 (NCI-H226): > 100 µM (inactive) | GI50 (NCI-H23): > 100 µM (inactive) | GI50 (NCI-H460): > 100 µM (inactive) | GI50 (NCI-H522): 51.3 µM (inactive) | GI50 (NCI/ADR-RES): > 100 µM (inactive) | GI50 (OVCAR-3): > 100 µM (inactive) | GI50 (OVCAR-4): 38.2 µM (inactive) | GI50 (OVCAR-5): > 100 µM (inactive) | GI50 (OVCAR-8): > 100 µM (inactive) | GI50 (PC-3): > 100 µM (inactive) | GI50 (RPMI-8226): 71.3 µM (inactive) | GI50 (RXF 393): > 100 µM (inactive) | GI50 (SF-268): > 100 µM (inactive) | GI50 (SF-295): > 100 µM (inactive) | GI50 (SF-539): > 100 µM (inactive) | GI50 (SK-MEL-28): > 100 µM (inactive) | GI50 (SK-MEL-2): > 100 µM (inactive) | GI50 (SK-MEL-5): 66.5 µM (inactive) | GI50 (SK-OV-3): > 100 µM (inactive) | GI50 (SN12C): > 100 µM (inactive) | GI50 (SNB-19): > 100 µM (inactive) | GI50 (SNB-75): > 100 µM (inactive) | GI50 (SW-620): > 100 µM (inactive) | GI50 (T47D): > 100 µM (inactive) | GI50 (TK-10): > 100 µM (inactive) | GI50 (U-251): > 100 µM (inactive) | GI50 (UACC-257): 40.1 µM (inactive) | GI50 (UACC-62): > 100 µM (inactive) | GI50 (UO-31): 65.9 µM (inactive)

Cc1c2c(n3c(nc4ccccc43)c1C#N)N(c1ccc(F)cc1)CC2
GI50 (786-0): > 100 µM (inactive) | GI50 (A498): > 100 µM (inactive) | GI50 (A549): > 100 µM (inactive) | GI50 (ACHN): > 100 µM (inactive) | GI50 (BT-549): > 100 µM (inactive) | GI50 (CAKI-1): > 100 µM (inactive) | GI50 (CCRF-CEM): > 100 µM (inactive) | GI50 (COLO 205): > 100 µM (inactive) | GI50 (DU-145): > 100 µM (inactive) | GI50 (HCC 2998): > 100 µM (inactive) | GI50 (HCT-116): > 100 µM (inactive) | GI50 (HCT-15): > 100 µM | GI50 (HL-60): > 100 µM (inactive) | GI50 (HOP-62): > 100 µM (inactive) | GI50 (HOP-92): > 100 µM (inactive) | GI50 (HT-29): > 100 µM (inactive) | GI50 (Hs-578T): 71.1 µM (inactive) | GI50 (IGROV-1): > 100 µM (inactive) | GI50 (LOX IMVI): > 100 µM (inactive) | GI50 (MCF7): > 100 µM (inactive) | GI50 (MDA-MB-435): > 100 µM (inactive) | GI50 (Malme-3M): > 100 µM (inactive) | GI50 (NCI-H226): > 100 µM (inactive) | GI50 (NCI-H23): > 100 µM (inactive) | GI50 (NCI-H460): > 100 µM (inactive) | GI50 (NCI-H522): > 100 µM (inactive) | GI50 (NCI/ADR-RES): > 100 µM (inactive) | GI50 (OVCAR-3): > 100 µM (inactive) | GI50 (OVCAR-4): 41.4 µM (inactive) | GI50 (OVCAR-5): > 100 µM (inactive) | GI50 (OVCAR-8): > 100 µM (inactive) | GI50 (PC-3): > 100 µM (inactive) | GI50 (RXF 393): > 100 µM (inactive) | GI50 (SF-268): > 100 µM (inactive) | GI50 (SF-295): > 100 µM (inactive) | GI50 (SF-539): > 100 µM (inactive) | GI50 (SK-MEL-28): > 100 µM (inactive) | GI50 (SK-MEL-2): > 100 µM (inactive) | GI50 (SK-MEL-5): > 100 µM (inactive) | GI50 (SK-OV-3): 74.5 µM (inactive) | GI50 (SN12C): > 100 µM (inactive) | GI50 (SNB-19): > 100 µM (inactive) | GI50 (SNB-75): > 100 µM (inactive) | GI50 (SR): > 100 µM (inactive) | GI50 (SW-620): > 100 µM (inactive) | GI50 (TK-10): > 100 µM (inactive) | GI50 (U-251): > 100 µM (inactive) | GI50 (UACC-257): > 100 µM (inactive) | GI50 (UACC-62): > 100 µM (inactive) | GI50 (UO-31): > 100 µM (inactive)

— ChEMBL document CHEMBL1201862, “PubChem BioAssay data set” (2004)
